Columns and labels:
Heat shock protein HSP90 = Heat shock protein HSP90 (Homo sapiens, UniProt P07900+P08238); assay: Inhibition of Hsp90 in human SKBR3 cells assessed as Her2 degradation after 24 hrs by Western blotting; format: cell-based; conditions: sk-br-3
[1] = target: Heat shock protein HSP 90-alpha (Homo sapiens, UniProt P07900); assay: Displacement of biotin-labeled geldanamycin from N-terminal His-tagged human recombinant HSP90alpha expressed in Escherichia coli
SK-BR-3 = assay: Cytotoxicity against human SKBR3 cells after 72 hrs by crystal violet assay; format: functional, cell-based; conditions: SK-BR-3, 72 h

Compound `Nc1ncnc2c1nc(Sc1cc3c(cc1Br)OCO3)n2CCCc1cn(CCOCCOCCOCCOCCOCCOCCOCCn2cc(CCCn3c(Sc4cc5c(cc4Br)OCO5)nc4c(N)ncnc43)nn2)nn1` has an IC50 (Heat shock protein HSP90) of 9200 nM, an IC50 [1] of 1100 nM and an IC50 (SK-BR-3) of 4800 nM.

`Nc1ncnc2c1nc(Sc1cc3c(cc1Br)OCO3)n2CCCc1cn(CCOCCOCCOCCOCCOCCn2cc(CCCn3c(Sc4cc5c(cc4Br)OCO5)nc4c(N)ncnc43)nn2)nn1` gave an IC50 (Heat shock protein HSP90) of 6300 nM, an IC50 [1] of 650 nM and an IC50 (SK-BR-3) of 3800 nM.

`C#CCCCCn1c(Sc2cc3c(cc2Br)OCO3)nc2c(N)ncnc21` was tested, and the IC50 (Heat shock protein HSP90) was 2600 nM, the IC50 [1] was 1400 nM and the IC50 (SK-BR-3) was 1400 nM.

`C#CCCCn1c(Sc2cc3c(cc2Br)OCO3)nc2c(N)ncnc21` was tested, and the IC50 (Heat shock protein HSP90) was 460 nM, the IC50 [1] was 300 nM and the IC50 (SK-BR-3) was 330 nM.

For `Nc1ncnc2c1nc(Sc1cc3c(cc1Br)OCO3)n2CCCc1cn(CCCO)nn1`, the IC50 (Heat shock protein HSP90) was 3900 nM, the IC50 [1] was 490 nM and the IC50 (SK-BR-3) was 1800 nM.

For `Nc1ncnc2c1nc(Sc1cc3c(cc1Br)OCO3)n2CCCCc1cn(CCOCCOCCOCCOCCOCCn2cc(CCCCn3c(Sc4cc5c(cc4Br)OCO5)nc4c(N)ncnc43)nn2)nn1`, the IC50 (Heat shock protein HSP90) was 5200 nM, the IC50 [1] was 5100 nM and the IC50 (SK-BR-3) was 3000 nM.

`Nc1ncnc2c1nc(Sc1cc3c(cc1Br)OCO3)n2CCCCc1cn(CCOCCOCCOCCOCCOCCOCCn2cc(CCCCn3c(Sc4cc5c(cc4Br)OCO5)nc4c(N)ncnc43)nn2)nn1` was tested, and the IC50 (Heat shock protein HSP90) was 4700 nM, the IC50 [1] was 3400 nM and the IC50 (SK-BR-3) was 5000 nM.

Compound `Nc1ncnc2c1nc(Sc1cc3c(cc1Br)OCO3)n2CCCCc1cn(CCOCCOCCOCCOCCOCCOCCOCCn2cc(CCCCn3c(Sc4cc5c(cc4Br)OCO5)nc4c(N)ncnc43)nn2)nn1` has an IC50 (Heat shock protein HSP90) of 4200 nM, an IC50 [1] of 3100 nM and an IC50 (SK-BR-3) of 4800 nM.

In the case of `Nc1ncnc2c1nc(Sc1cc3c(cc1Br)OCO3)n2CCCCc1cn(CCCO)nn1`, the IC50 (Heat shock protein HSP90) is reported as 2900 nM, the IC50 [1] is reported as 510 nM and the IC50 (SK-BR-3) is reported as 1400 nM.

Work on `Nc1ncnc2c1nc(Sc1cc3c(cc1Br)OCO3)n2CCCc1cn(CCOCCOCCOCCOCCOCCOCCn2cc(CCCn3c(Sc4cc5c(cc4Br)OCO5)nc4c(N)ncnc43)nn2)nn1` yielded an IC50 (Heat shock protein HSP90) of 7100 nM, an IC50 [1] of 790 nM and an IC50 (SK-BR-3) of 5600 nM.

— ChEMBL document CHEMBL1212829, “Efficient synthesis of Hsp90 inhibitor dimers as potential antitumor agents” (Bioorg Med Chem, 2010)
